In US4298745A, “Hydantoin derivatives” (Beecham Group Limited, priority 1978, dated 1981):
Like-named read-outs stand apart in the source and are kept apart here.

Tests used:
[1] = test system: bronchoconstriction induced by a histamine aerosol; assay: protection of conscious guinea pigs against bronchoconstriction induced by a histamine aerosol (Herxheimer test); type: in vivo, guinea pig; settings: Table B, compound by aerosol
Text: 2. The compounds were also examined for their ability to protect conscious guinea pigs against bronchoconstriction induced by a histamine aerosol (Herxheimer test). In these experiments the compounds were adminstered by aerosol.

[2] = test system: 5-hydroxytryptamine induced bronchoconstriction; assay: inhibition of 5-hydroxytryptamine induced bronchoconstriction in the anaesthetised, artificially respired guinea pig (Konzett-Rossler preparation); type: in vivo; settings: for ED50: Cavia porcellus, iv
Experimental: 1. The compounds were examined for their ability to inhibit 5-hydroxytryptamine induced bronchoconstriction in the anaesthetised, artificially respired guinea pig (Konzett-Rossler preparation) The compounds were administered intravenously.
The test for bronchodilator activity used in `Bronchodilator activity` method 1 above was used with three test animals for the comparison testing of Compound 5 against the compound 5-(6-carboxyhexyl)-1-(3-hydroxy-4,4-dimethyloctyl)hydantoin (A) highlighted in German Offenlegungsschrift No. 2724948 for its anti-bronchoconstriction activity.

[3] = test system: collagen induced platelet aggregation in human platelet rich plasma; assay: inhibition of platelet aggregation induced in vitro by collagen in human platelet rich plasma; type: cell-based; settings: Table C, read-out: IC50 against collagen induced aggregation
Text: The compounds were examined for their ability to inhibit platelet aggregation induced in vitro by collagen in human platelet rich plasma.

[4] = test system: indomethacin induced gastric damage; assay: anti-ulcer activity: inhibition of indomethacin induced gastric damage in the rat; type: in vivo; settings: 100 mg/kg orally
Experimental: Anti-ulcer activity was assessed by the inhibition of indomethacin induced gastric damage in the rat according to the method of Eleghe (1974) Israeli J. Med. Sci. IO, 1451. Rats were starved overnight, given 15 mg/kg indomethacin subcutaneously and sacrificed 4 hours later. Stomachs were reflated with n.saline, cut along the greater curvature pinned out and scored for gastric damage by the following system.
Score 1-3--according to degree of erythema and slight haemorrhage.
Score 4-6--according to degree of mucosal erosion.
Score 7-9--according to depth of gastric damage.
Groups of 7 rats were used for each treatment and the test compound or vehicle were administered 30 minutes prior to giving the indomethacin. Dose of test compound was 100 mg/kg orally and control groups receiving vehicle only were set up simultaneously. Mean values for each treatment were obtained using the above scoring system and the Mann Witney test applied for significance of difference between the values obtained with the treatments.

[5] = test system: arrhythmia in electrostimulation of the right ventricle; assay: anti-arrhythmic activity: increase of the voltage required to produce arrhythmia in electrostimulation of the right ventricle; type: in vivo, guinea pig; settings: Table D; anaesthetised guinea pigs, 32.0 mg/kg I.d.; p<0.5 (so in the source)
Text: Compound 5 was examined for its ability to increase the voltage required to produce arrhythmia in electrostimulation of the right ventricle in anaesthatised guinea pigs.

[6] = Table A, anaesthetised guinea pig, i.v., read-out: ED50 against 5-hydroxytryptamine induced bronchoconstriction
[7] = Table E, comparison testing, three test animals, guinea pig, read-out: ED50 (mean)

| IC50 [3] [µM] | SMILES | Activity, Aerosol administration (Herxheimer test) [1] [µg/mL] | ED50 [2, 6] [µg/kg] | Mean Score ± S.E. of mean (gastric damage) ([4]; 30 minutes before 15 mg/kg indomethacin s.c., score 1-9, vehicle control 4.14±0.59, p<0.01) | anti-ulcer activity (in words) ([4]; compared with vehicle only treatment) | % increase of voltage ± SEM [5] [%] | ED50 [2, 7] [µg/kg] | bronchodilator potency of compound 5 relative to Compound A ([2]; comparison testing, Table E) |
| --- | --- | --- | --- | --- | --- | --- | --- | --- |
| 28 | CCCCC(C)C(C)(O)CCN1C(=O)N(C)C(=O)C1CC=CCCCC(=O)O (stereo not drawn) [Compound 4, 1-(3'-hydroxy-3'-methyl-4'-methyl-n-octyl)-3-methyl-5(6"-carboxy-n-hex-2"- enyl)hydantoin] | 0.5 | 0.6 | 0.43±0.20 | reduced the mean ulcer score and therefore has significant anti-ulcer activity |  |  |  |
| 22 | CCCCCCC(C)(O)CCN1C(=O)N(C)C(=O)C1CC=CCCCC(=O)O (stereo not drawn) [Compound 5] | 1 | 1.3 |  |  | 43.0 ± 7.0 | 1.2 | at least an order of magnitude more potent |
|  | CCCCC(C)(C)C(O)CCN1C(=O)NC(=O)C1CCCCCCC(=O)O (stereo not drawn) [Compound A, 5-(6-carboxyhexyl)-1-(3-hydroxy-4,4-dimethyloctyl)hydantoin, reference compound] |  |  |  |  |  | 24.6 |  |
